One experiment deals with Pseudomonas aeruginosa. The experiment in a line: Antibacterial activity against Pseudomonas aeruginosa assessed as inhibition of bacterial growth at 50 uM by microdilution assay relative to control. Format: functional. For orientation: Dilution methods test growth across graded concentrations, often in twofold steps.
The subject of experiment [1] is Staphylococcus aureus. As to the kind of experiment: Antibacterial activity against methicillin-resistant Staphylococcus aureus assessed as inhibition of bacterial growth at 50 uM by microdilution assay relative to control. It is filed as functional.
The next experiment deals with Klebsiella pneumoniae. As to the kind of experiment: Antibacterial activity against Klebsiella pneumoniae assessed as inhibition of bacterial growth at 50 uM by microdilution assay relative to control. It is filed as functional.
Experiment [2] deals with Staphylococcus aureus. As to the kind of experiment: Antibacterial activity against methicillin-resistant Staphylococcus aureus assessed as inhibition of bacterial growth by microdilution assay. It is filed as functional, organism-based.

SMILES strings stand for the structures.

`CC(C)c1ccc(NC2CCN(C(=O)/C=C/c3ccccc3)CC2)cc1`: the inhibition at 50 µM was 20% in the experiment on Pseudomonas aeruginosa, 42% in the experiment on Staphylococcus aureus [1] and 27% with Klebsiella pneumoniae.
In the same order, the values of `O=C(/C=C/c1ccc2c(c1)OCCCO2)N1CCC(Nc2ccccc2)CC1` are 6%, 0% and 40%.
In the same order, the values of `O=C(/C=C/c1ccc2c(c1)OCO2)N1CCC(Nc2ccc(Cl)cc2)CC1` are 13%, 20% and 32%.
For `COc1ccc(NC2CCN(C(=O)/C=C/c3ccc4c(c3)OCO4)CC2)cc1`, the inhibition at 50 µM is 0% with Pseudomonas aeruginosa, 0% with Staphylococcus aureus [1] and 44% with Klebsiella pneumoniae.
As for `CC(C)c1ccc(NC2CCN(C(=O)/C=C/c3ccc4c(c3)OCCCO4)CC2)cc1`, the inhibition at 50 µM with Pseudomonas aeruginosa is 14%; in the experiment on Staphylococcus aureus [1], 0%; in the experiment on Klebsiella pneumoniae it was 54%.
The corresponding values for `COc1ccc(NC2CCN(C(=O)/C=C/c3ccccc3)CC2)cc1` are 7%, 15% and 21%.
The corresponding values for `CC(C)c1ccc(NC2CCN(C(=O)/C=C/c3ccc4c(c3)OCO4)CC2)cc1` are 27%, 0% and 28%.
The corresponding values for `O=C(/C=C/c1ccc2c(c1)OCCO2)N1CCC(Nc2ccccc2)CC1` are 14%, 0% and 35%.
For the compound `COc1cc(/C=C/C(=O)N2CCC(Nc3ccc(OC(F)(F)F)cc3)CC2)ccc1O`, the inhibition at 50 µM worked out at 16% with Pseudomonas aeruginosa, 0% in the experiment on Staphylococcus aureus [1] and 0% in the experiment with Klebsiella pneumoniae.
Take `COc1cc(/C=C/C(=O)N2CCC(Nc3ccccc3)CC2)ccc1O`: the inhibition at 50 µM came to 20% in the experiment on Pseudomonas aeruginosa, 8% in the experiment with Staphylococcus aureus [1] and 37% in the experiment on Klebsiella pneumoniae.
On to `COc1ccc(NC2CCN(C(=O)/C=C/c3ccc(O)c(OC)c3)CC2)cc1`, for which the inhibition at 50 µM is 0% in the experiment on Pseudomonas aeruginosa, 4% in the experiment on Staphylococcus aureus [1] and 0% in the experiment on Klebsiella pneumoniae.
Take `COc1cc(/C=C/C(=O)N2CCC(Nc3ccc(F)cc3)CC2)ccc1O`: the inhibition at 50 µM with Pseudomonas aeruginosa, in the experiment on Staphylococcus aureus [1] and in the experiment on Klebsiella pneumoniae was 0% in each case.
For the compound `COc1ccc(NC2CCN(C(=O)/C=C/c3ccc4c(c3)OCCO4)CC2)cc1`, the inhibition at 50 µM was 7% with Pseudomonas aeruginosa, 30% with Staphylococcus aureus [1] and 40% with Klebsiella pneumoniae.
Turning to `COc1cc(/C=C/C(=O)N2CCC(NCc3ccccc3)CC2)ccc1O`, the inhibition at 50 µM in the experiment with Pseudomonas aeruginosa was 0%; in the experiment with Staphylococcus aureus [1], 0%; with Klebsiella pneumoniae, 41%.
Regarding `COc1cc(/C=C/C(=O)N2CCC(Nc3ccc(Cl)cc3)CC2)ccc1O`, the inhibition at 50 µM with Pseudomonas aeruginosa stood at 18%; in the experiment on Staphylococcus aureus [1], 0%; in the experiment on Klebsiella pneumoniae, 37%.
Turning to `O=C(/C=C/c1ccc2c(c1)OCCO2)N1CCC(Nc2ccc(Cl)cc2)CC1`, the inhibition at 50 µM in the experiment on Pseudomonas aeruginosa amounted to 10%; with Staphylococcus aureus [1], 24%; with Klebsiella pneumoniae, 19%. Further, in the experiment with Staphylococcus aureus [2], the 50% inhibitory concentration (IC50) came out at 60.5 µM.
For `COc1cc(/C=C/C(=O)N2CCC(Nc3ccc4c(c3)OCCO4)CC2)ccc1O`, the inhibition at 50 µM is 0% in the experiment with Pseudomonas aeruginosa, 3% with Staphylococcus aureus [1] and 23% with Klebsiella pneumoniae.
For `COc1cc(/C=C/C(=O)N2CCC(Nc3cccc4ccccc34)CC2)ccc1O`, the inhibition at 50 µM in the experiment with Pseudomonas aeruginosa, with Staphylococcus aureus [1] and in the experiment on Klebsiella pneumoniae was 0% each time.
Regarding `O=C(/C=C/c1ccc2c(c1)OCO2)N1CCC(Nc2ccccc2)CC1`, the inhibition at 50 µM in the experiment on Pseudomonas aeruginosa was found to be 0%; with Staphylococcus aureus [1], 0%; in the experiment with Klebsiella pneumoniae it was 24%.
Consider `COc1cc(/C=C/C(=O)N2CCC(Nc3ccc(C)cc3)CC2)ccc1O`, for which the values for the inhibition at 50 µM in the experiment on Pseudomonas aeruginosa, with Staphylococcus aureus [1] and in the experiment with Klebsiella pneumoniae were 6%, 0% and 49%, respectively.
Consider `COc1cc(/C=C/C(=O)N2CCC(Nc3cccc(F)c3)CC2)ccc1O`, for which the inhibition at 50 µM turned out to be 4% in the experiment on Pseudomonas aeruginosa, 0% in the experiment with Staphylococcus aureus [1] and 29% in the experiment with Klebsiella pneumoniae.
In the same order, the values of `O=C(/C=C/c1ccc2c(c1)OCCCO2)N1CCC(Nc2ccc(Cl)cc2)CC1` are 5%, 0% and 27%.
As to `COc1ccc(NC2CCN(C(=O)/C=C/c3ccc4c(c3)OCCCO4)CC2)cc1`, the values for the inhibition at 50 µM in the experiment on Pseudomonas aeruginosa, with Staphylococcus aureus [1] and in the experiment with Klebsiella pneumoniae were 0%, 0% and 30%, respectively. The IC50 with Staphylococcus aureus [2] amounted to 50.1 µM.
On to `O=C(/C=C/c1ccccc1)N1CCC(Nc2ccccc2)CC1`, for which the results for the inhibition at 50 µM in the experiment with Pseudomonas aeruginosa, with Staphylococcus aureus [1] and in the experiment with Klebsiella pneumoniae were 0%, 36% and 0%, respectively.
With `COc1cc(/C=C/C(=O)N2CCC(Nc3cccc(Cl)c3)CC2)ccc1O`, the results for the inhibition at 50 µM with Pseudomonas aeruginosa, in the experiment on Staphylococcus aureus [1] and in the experiment with Klebsiella pneumoniae were 14%, 0% and 0%, respectively.
`COc1cc(/C=C/C(=O)N2CCC(Nc3ccc(C(C)C)cc3)CC2)ccc1O`: the inhibition at 50 µM in the experiment with Pseudomonas aeruginosa amounted to 25%; with Staphylococcus aureus [1], 0%; in the experiment with Klebsiella pneumoniae, 20%.
In the same order, the values of `CC(C)c1ccc(NC2CCN(C(=O)/C=C/c3ccc4c(c3)OCCO4)CC2)cc1` are 10%, 26% and 29%.
With `O=C(/C=C/c1ccccc1)N1CCC(Nc2ccc(Cl)cc2)CC1`, the inhibition at 50 µM in the experiment on Pseudomonas aeruginosa turned out to be 37%; with Staphylococcus aureus [1] it was 22%; with Klebsiella pneumoniae, 38%.

For orientation: inhibition means the change of the read-out against control, counted positive when it falls. For orientation: IC50 means the concentration that inhibits the measured activity by half.

The values are drawn from ChEMBL document CHEMBL6092134, “N-acyl-4-arylaminopiperidines: Design and synthesis of a potential antimicrobial scaffold” (Bioorg Med Chem Lett, 2024).
